Measurements taken from publication PMC4657098, “A Review of the Updated Pharmacophore for the Alpha 5 GABA(A) Benzodiazepine Receptor Model” (International Journal of Medicinal Chemistry, 2015).
Where two headings read alike, the source gives them in different places.

Tests used:
α6β3γ2 GABAA/BzR [1] = biological target: T1, α6β3γ2 GABAA/BzR (Homo sapiens, UniProt P18507+Q16445); experiment: Competition binding to HEK cell membranes, α6β3γ2; parameters: expressed in transfected cells
α2β3γ2 GABAA/BzR [2] = biological target: T2, α2β3γ2 GABAA/BzR (Homo sapiens, UniProt P18507+P47869); experiment: Competition binding to HEK cell membranes, α2β3γ2; parameters: expressed in transfected cells
α4β3γ2 GABAA/BzR = biological target: T3, α4β3γ2 GABAA/BzR (Homo sapiens, UniProt P18507+P48169); experiment: biochemical; type: binding
T3 construct: expressed in transfected cells; host or cells: LTK cells (given for XLi-093 only)

α1β3γ2 GABAA/BzR [3] = biological target: T4, α1β3γ2 GABAA/BzR (Homo sapiens, UniProt P14867+P18507); experiment: Competition binding to HEK cell membranes, α1β3γ2; parameters: expressed in transfected cells
α5β3γ2 GABAA/BzR [4] = biological target: T5, α5β3γ2 GABAA/BzR (Homo sapiens, UniProt P18507+P31644); experiment: Competition binding to HEK cell membranes, α5β3γ2; parameters: expressed in transfected cells
α3β3γ2 GABAA/BzR [5] = biological target: T6, α3β3γ2 GABAA/BzR (Homo sapiens, UniProt P18507+P34903); experiment: Competition binding to HEK cell membranes, α3β3γ2; parameters: expressed in transfected cells
[6] = tested on: Bz BS of GABA(A) receptors; conditions: cited from earlier work
α6β3γ2 GABAA/BzR [7] = biological target: T1, α6β3γ2 GABAA/BzR; parameters: expressed in transfected cells; host or cells: LTK cells (given for XLi-093 only); conditions: cited from earlier work
α2β3γ2 GABAA/BzR [8] = biological target: T2, α2β3γ2 GABAA/BzR; parameters: expressed in transfected cells; host or cells: LTK cells (given for XLi-093 only); conditions: cited from earlier work
α3β3γ2 GABAA/BzR [9] = biological target: T6, α3β3γ2 GABAA/BzR; parameters: expressed in transfected cells; host or cells: LTK cells (given for XLi-093 only); conditions: cited from earlier work
α1β3γ2 GABAA/BzR [10] = biological target: T4, α1β3γ2 GABAA/BzR; parameters: expressed in transfected cells; host or cells: LTK cells (given for XLi-093 only); conditions: cited from earlier work
α5β3γ2 GABAA/BzR [11] = biological target: T5, α5β3γ2 GABAA/BzR; parameters: expressed in transfected cells; host or cells: LTK cells (given for XLi-093 only); conditions: cited from earlier work

C#Cc1ccc2c(c1)C(c1ccccc1F)=NC(C)C(=O)N2C (stereo not drawn) [OMB-19]
Ki (α6β3γ2 GABAA/BzR [1]; read-out: Ki α6): 0.04 µM
Ki (α2β3γ2 GABAA/BzR [2]; read-out: Ki α2): 0.0046 µM
Ki (α4β3γ2 GABAA/BzR; read-out: Ki α4): 3.33 µM
Ki (α1β3γ2 GABAA/BzR [3]; read-out: Ki α1): 0.022 µM
Ki (α5β3γ2 GABAA/BzR [4]; read-out: Ki α5): 0.0035 µM
Ki (α3β3γ2 GABAA/BzR [5]; read-out: Ki α3): 0.02 µM

CN1Cc2c(C(=O)OC(C)(C)C)ncn2-c2ccc(C#C[Si](C)(C)C)cc2C1=O [RY-023 C22H27N3O3Si]
Ki (α6β3γ2 GABAA/BzR [1]; read-out: Ki α6): 0.0586 µM
Ki (α2β3γ2 GABAA/BzR [2]; read-out: Ki α2): 0.143 µM
Ki (α4β3γ2 GABAA/BzR; read-out: Ki α4): 0.0078 µM
Ki (α1β3γ2 GABAA/BzR [3]; read-out: Ki α1): 0.197 µM
Ki (α5β3γ2 GABAA/BzR [4]; read-out: Ki α5): 0.00261 µM
Ki (α3β3γ2 GABAA/BzR [5]; read-out: Ki α3): 0.255 µM

C#Cc1ccc2c(c1)C(=O)N(C)Cc1c(C(=O)OCC)ncn1-2 [RY-080 C17H15N3O3]
Ki (α6β3γ2 GABAA/BzR [1]; Ki α6): 0.0288 µM
Ki (α2β3γ2 GABAA/BzR [2]; Ki α2): 0.0214 µM
Ki (α4β3γ2 GABAA/BzR): 0.0053 µM
Ki (α1β3γ2 GABAA/BzR [3]; Ki α1): 0.0284 µM
Ki (α5β3γ2 GABAA/BzR [4]; Ki α5): 0.00049 µM
Ki (α3β3γ2 GABAA/BzR [5]; Ki α3): 0.0258 µM

CCOC(=O)c1ncn2c1CN(C)C(=O)c1cc(F)ccc1-2 [Ro15-1788]
modulation [6]: antagonist

C[Si](C)(C)C#Cc1ccc2[nH]c3cnc(C(=O)OCC(F)(F)F)cc3c2c1 [WY-B-25]
Ki (α6β3γ2 GABAA/BzR [1]; Ki α6): 2 µM
Ki (α2β3γ2 GABAA/BzR [2]; Ki α2): 0.04 µM
Ki (α4β3γ2 GABAA/BzR): 2 µM
Ki (α1β3γ2 GABAA/BzR [3]; Ki α1): 0.0076 µM
Ki (α6β3γ2 GABAA/BzR [7]; Figure 33, αxβ3γ2, read-out: Affinity Ki α6): > 3 µM
Ki (α5β3γ2 GABAA/BzR [4]; Ki α5): 0.263 µM
Ki (α3β3γ2 GABAA/BzR [5]; Ki α3): 0.066 µM

C#Cc1ccc2[nH]c3cnc(C(=O)OCC(F)(F)F)cc3c2c1 [WY-B-26-2]
Ki (α6β3γ2 GABAA/BzR [1]; Ki α6): 2 µM
Ki (α2β3γ2 GABAA/BzR [2]; Ki α2): 0.0446 µM
Ki (α4β3γ2 GABAA/BzR): 2 µM
Ki (α1β3γ2 GABAA/BzR [3]; Ki α1): 0.00445 µM
Ki (α5β3γ2 GABAA/BzR [4]; Ki α5): 0.124 µM
Ki (α2β3γ2 GABAA/BzR [8]; read-out: Affinity Ki α2): 0.0446 µM
Ki (α3β3γ2 GABAA/BzR [9]; read-out: Affinity Ki α3): 0.0427 µM
Ki (α1β3γ2 GABAA/BzR [10]; read-out: Affinity Ki α1): 0.0045 µM
Ki (α5β3γ2 GABAA/BzR [11]; read-out: Affinity Ki α5): 0.124 µM
Ki (α3β3γ2 GABAA/BzR [5]; Ki α3): 0.0427 µM

CC(C)(C)OC(=O)c1cc2c(cn1)[nH]c1ccc(-c3ccco3)cc12 [WYS13]
Ki (α6β3γ2 GABAA/BzR [1]; read-out: Ki α6): 5 µM
Ki (α2β3γ2 GABAA/BzR [2]; read-out: Ki α2): 0.013 µM
Ki (α1β3γ2 GABAA/BzR [3]; read-out: Ki α1): 0.00244 µM
Ki (α6β3γ2 GABAA/BzR [7]; read-out: Affinity Ki α6): 5 µM
Ki (α5β3γ2 GABAA/BzR [4]; read-out: Ki α5): 0.163 µM
Ki (α2β3γ2 GABAA/BzR [8]; read-out: Affinity Ki α2): 0.013 µM
Ki (α3β3γ2 GABAA/BzR [9]; read-out: Affinity Ki α3): 0.0275 µM
Ki (α1β3γ2 GABAA/BzR [10]; read-out: Affinity Ki α1): 0.0024 µM
Ki (α5β3γ2 GABAA/BzR [11]; read-out: Affinity Ki α5): 0.163 µM
Ki (α3β3γ2 GABAA/BzR [5]; read-out: Ki α3): 0.0275 µM

CC(C)(C)OC(=O)c1cc2c(cn1)[nH]c1ccc(-c3ccccc3)cc12 [WYS15]
Ki (α6β3γ2 GABAA/BzR [1]; Ki α6): 5 µM
Ki (α2β3γ2 GABAA/BzR [2]; Ki α2): 0.00202 µM
Ki (α2β3γ2 GABAA/BzR [2]; read-out: Ki α2): 0.00202 µM
Ki (α1β3γ2 GABAA/BzR [3]; Ki α1): 0.00363 µM
Ki (α1β3γ2 GABAA/BzR [3]; read-out: Ki α1): 0.00363 µM
Ki (α5β3γ2 GABAA/BzR [4]; Ki α5): 0.0765 µM
Ki (α5β3γ2 GABAA/BzR [4]; read-out: Ki α5): 0.0765 µM
Ki (α2β3γ2 GABAA/BzR [8]; read-out: Affinity Ki α2): 0.00202 µM
Ki (α3β3γ2 GABAA/BzR [9]; read-out: Affinity Ki α3): 0.0443 µM
Ki (α1β3γ2 GABAA/BzR [10]; read-out: Affinity Ki α1): 0.00363 µM
Ki (α5β3γ2 GABAA/BzR [11]; read-out: Affinity Ki α5): 0.0765 µM
Ki (α3β3γ2 GABAA/BzR [5]; Ki α3): 0.0443 µM
Ki (α3β3γ2 GABAA/BzR [5]; read-out: Ki α3): 0.0443 µM

CN1Cc2c(CCl)ncn2-c2ccc(Cl)cc2C1=O [compound 5]
Ki (α6β3γ2 GABAA/BzR [7]; Figure 4, read-out: Ki α6): > 0.3 µM
Ki (α2β3γ2 GABAA/BzR [8]; Figure 4, read-out: Ki α2): > 0.3 µM
Ki (α3β3γ2 GABAA/BzR [9]; Figure 4, read-out: Ki α3): > 0.3 µM
Ki (α1β3γ2 GABAA/BzR [10]; Figure 4, read-out: Ki α1): > 0.3 µM
Ki (α5β3γ2 GABAA/BzR [11]; Figure 4, read-out: Ki α5): 0.0285 µM

CCOCc1ncn2c1CN(C)C(=O)c1cc(Cl)ccc1-2 [compound 6]
Ki (α6β3γ2 GABAA/BzR [7]; Figure 4, read-out: Ki α6): > 0.3 µM
Ki (α2β3γ2 GABAA/BzR [8]; Figure 4, read-out: Ki α2): > 0.3 µM
Ki (α3β3γ2 GABAA/BzR [9]; Figure 4, read-out: Ki α3): > 0.3 µM
Ki (α1β3γ2 GABAA/BzR [10]; Figure 4, read-out: Ki α1): > 0.3 µM
Ki (α5β3γ2 GABAA/BzR [11]; Figure 4, read-out: Ki α5): 0.0827 µM

C#Cc1ccc2c(c1)C(=O)N1CCC[C@H]1c1c(-c3nc(C)no3)ncn1-2 [compound 7]
Ki (α1β3γ2 GABAA/BzR [10]; Figure 4, read-out: Ki α1): > 0.089 µM
Ki (α5β3γ2 GABAA/BzR [11]; Figure 4, read-out: Ki α5): 0.0037 µM

C#Cc1ccc2c(c1)C(c1ccccc1)=NCc1c(C(=O)OCCCOC(=O)c3ncn4c3CN=C(c3ccccc3)c3cc(C#C)ccc3-4)ncn1-2 [compound 63, 1,3-Bis(8-acetylenyl-6-phenyl-4H-benzo[f]imidazo[1,5-a][1,4]diazepine-3-carboxy) propyl diester]
Ki (α6β3γ2 GABAA/BzR [1]; Ki α6): 5 µM
Ki (α2β3γ2 GABAA/BzR [2]; Ki α2): 0.0074 µM
Ki (α4β3γ2 GABAA/BzR): 5 µM
Ki (α1β3γ2 GABAA/BzR [3]; Ki α1): 0.236 µM
Ki (α5β3γ2 GABAA/BzR [4]; Ki α5): 0.194 µM
Ki (α3β3γ2 GABAA/BzR [5]; Ki α3): 0.272 µM

CN1C(=O)CN=C(c2ccccc2)c2cc(Cl)ccc21 [diazepam]
modulation [6]: agonist

Cc1ncc2n1-c1ccc(Cl)cc1C(c1ccccc1F)=NC2 [midazolam]
modulation ([6]; Supplement Table 1): agonist

Cc1nnc2n1-c1ccc(Cl)cc1C(c1ccccc1Cl)=NC2 [triazolam]
modulation ([6]; Supplement Table 1): agonist

Cc1ccc(-c2nc3ccc(C)cn3c2CC(=O)N(C)C)cc1 [zolpidem]
modulation ([6]; Supplement Table 1): agonist

Ro15-4513 [reference compound]
modulation [6]: inverse agonist
Ki (α2β3γ2 GABAA/BzR [2]; read-out: Ki α2): 0.0026 µM
Ki (α5β3γ2 GABAA/BzR [4]; read-out: Ki α5): 0.00026 µM
